# Data from patent US20140093585A1, “PARP INHIBITORS FOR THE TREATMENT OF CIPN” (AbbVie Inc., priority 2011, published 2014).
# “Also recorded” adds a separate entry of the source.
# Key:
# [1] = tested on: PAR (pADPr); experiment: PAR levels in glabrous hindpaw skin biopsies, ELISA measuring pADPr; assay type: in vivo, rats; conditions: Example 4; skin biopsies on day 12 of Example 3; Compound A 25 mg/kg and 50 mg/kg; FIG. 8
# Method: Following behavioral testing on day 12 in Example 3, skin biopsies were taken from glabrous hindpaw skin from rats in the naïve, vincristine, and vincristine+Compound A groups (n=5 per group). PAR levels were assessed using ab ELISA assay to measure pADPr as previously described (Liu et al., 2008). PAR levels in skin were increased by vincristine, as compared to the saline group.
# [2] = tested on: vincristine model of chemotherapy-induced pain; experiment: Vincristine model of chemotherapy-induced pain: mechanical threshold with von Frey monofilaments; assay type: in vivo, rats; conditions: for development of mechanical allodynia (mechanical threshold, von Frey): vincristine 30 ug/kg/day for 12 days; for reversal of mechanical allodynia (von Frey), positive control: rats receiving vincristine, morphine 6 mg/kg i.p. acutely on each day of testing
# Method: Rats were administered a PARP Inhibitor, 2-[(2R)-2-methylpyrrolidin-2-yl]-1H-benzimidazole-4-carboxamide (Compound A) or 6-fluoro-2-(2-methylpyrrolidin-2-yl)-1H-benzimidazole-4-carboxamide (Compound B), at doses of 25 mg/kg/day or 50 mg/kg/day (i.p.), for two days prior to the initiation of vincristine. After two days or pre-dosing with the PARP inhibitor, two minipumps were implanted in rats. Vincristine was administered via a subcutaneous mini-osmotic pump that delivered 30 ug/kg/day (i.v) for twelve days. PARP Inhibitor, Compound A or Compound B, or vehicle was administered via a subcutaneous mini-osmotic pump that delivered 25 mg/kg/day, 50 mg/kg/day, or vehicle (i.p.) for twelve days. A positive control group of rats receiving vincristine were dosed acutely with morphine (6 mg/kg, i.p.) on each day of testing. A negative control group of rats received saline. Mechanical threshold was determined for all rats using von Frey monofilaments at 5, 9 and 12 days following initiation of vincristine administration (days 7, 11 and 14 of compound delivery, respectively) for Compound A, and at 3, 6 and 10 days following initiation of vincristine administration (days 5, 8 and 12 of compound delivery, respectively) for Compound B. Mechanical allodynia was observed on all testing days in rats treated with vincristine compared to the naïve group.
# Rats were administered a PARP Inhibitor, 2-[(2R)-2-methylpyrrolidin-2-yl]-1H-benzimidazole-4-carboxamide (Compound A), at doses of 25 mg/kg/day or 50 mg/kg/day (i.p., bid) for two days prior to the initiation of vincristine. After two days or pre-dosing with ABT-888, two minipumps were implanted in rats. Vincristine was administered via a subcutaneous mini-osmotic pump that delivered 30 ug/kg/day (i.v) for twelve days. Compound A or vehicle was administered via a subcutaneous mini-osmotic pump that delivered 25 mg/kg/day or 50 mg/kg/day (i.p.) for twelve days. A positive control group of rats receiving vincristine were dosed with acutely morphine (6 mg/kg, i.p.) on each day of testing. A negative control group of rats received saline. Mechanical threshold was determined for all rats using von Frey monofilaments on 5, 9 and 12 days following initiation of vincristine administration (days 7, 11 and 14 of compound delivery, respectively). Mechanical allodynia was observed on all testing days in rats treated with vincristine compared to the naïve group.
# Vincristine (i.v, […]) was administered by mini-pump for twelve days. Rats were divided into four groups: Group 1: Vehicle; Group 2: 1-(2-fluoro-5-((4-oxo-3,4,5,6,7,8-hexahydrophthalazin-1-yl)methyl)phenyl)pyrrolidine-2,5-dione (Compound D), 25 mg/kg/day; Group 3: Compound D, 50 mg/kg/day; Group 4: Vehicle+Positive control (morphine). Groups 2 and 3 were pretreated with their respective dose of Compound D (either 25 mg/kg or 50 mg/kg, ip) for two days prior to co-dosing with vincristine. Rats in the positive control group were dosed with vehicle by mini-pump and were acutely administered morphine on day of testing. Mechanical threshold was determined using von Frey monofilaments on days 5, 9, and 12 post-mini-pump implantation. Plasma and brain were collected on day 12. […] Anti-nociceptive efficacy was dose-dependent and observed on days 5, 9, and 12 (FIG. 10).
# [3] = tested on: oxaliplatin model; experiment: Oxaliplatin model: behavioral assays (von Frey mechanical threshold, paw lifts from cold plate); assay type: in vivo; conditions: mice, oxaliplatin cumulative 30 mg/kg, Compound C 50 mg/kg i.p.
# Method: (§1) Mice were administered a PARP Inhibitor, 2-[(2S)-2-methylpyrrolidin-2-yl]-1H-benzimidazole-4-carboxamide (Compound C) at doses of 25 mg/kg/day or 50 mg/kg/day (i.p.) for two days prior to the initiation of cisplatin. The 50 mg/kg dose of Compound C was administered (i.p.) for two days prior to oxaliplatin administration. After two days of pre-dosing with the PARP Inhibitor, mice were co-administered Compound C with cisplatin or oxaliplatin for 5 days (daily injections, i.p.), followed by 5 days off, followed by 5 daily injections (i.p.). Cumulative dose of cisplatin was 23 mg/kg. Cumulative dose of oxaliplatin was 30 mg/kg. Behavioral assays were performed on all groups of mice before dosing, and then at weeks 3, 6, and 8. Behavioral assays including determining mechanical threshold with von Frey monofilaments, determining, latency to paw withdrawal from a radiant heat source, and number of paw lifts from a cold plate.
# [4] = tested on: digital nerve SNAP amplitude, cisplatin-treated mice; experiment: Nerve conduction study: sensory nerve action potential (SNAP) recording from the digital nerve after cisplatin; assay type: in vivo; conditions: Example 5, cisplatin 2.3 mg/kg/day i.p., Compound C 25 or 50 mg/kg/day (i.p., bid), week 3, FIG. 9
# Method: Mice were administered a PARP Inhibitor, 2-[(2S)-2-methylpyrrolidin-2-yl]-1H-benzimidazole-4-carboxamide (Compound C), at doses of 25 mg/kg/day or 50 mg/kg/day (i.p., bid), for two days prior to the initiation of cisplatin. After two days or pre-dosing with Compound C, mice were co-dosed with the PARP inhibitor (25 mg/kg/day or 50 mg/kg/day) and cisplatin (2.3 mg/kg/day, i.p.). The dosing regimen consisted for 5 daily co-injections, followed by 5 days off, and then a repeat of 5 daily co-injection. Nerve conduction studies were performed after the final injections in week 3. Sensory nerve action potential (SNAP) recordings were made from the digital nerve. Cisplatin induced a decrease in amplitude in SNAP recording from the digital nerve, an effect that was prevented by 2-[(2S)-2-methylpyrrolidin-2-yl]-1H-benzimidazole-4-carboxamide (Compound C) treatment (FIG. 9).
# [5] = tested on: cisplatin model; experiment: Cisplatin model: behavioral assays (von Frey mechanical threshold, paw withdrawal latency from radiant heat); assay type: in vivo; conditions: mice, cisplatin cumulative 23 mg/kg, Compound C 25 or 50 mg/kg/day i.p.
# Method: as §1
structure (smiles),measurement,setting,value
"C[C@]1(c2nc3c(C(N)=O)cccc3[nH]2)CCCN1 [Compound A, 2-[(2R)-2-methylpyrrolidin-2-yl]-1H-benzimidazole-4-carboxamide]",vincristine-mediated PAR activation (PAR levels) in rat glabrous skin,[1],significantly reduced vincristine-mediated PAR activation; also recorded: prevention of vincristine-mediated increase in PAR levels in skin
same,"development of mechanical allodynia (mechanical threshold, von Frey)","[2]; Example 1, rats, Compound A 25 or 50 mg/kg/day i.p., 2 days pre-dosing then mini-pump 12 days, tested 5, 9 and 12 days after vincristine start, FIG. 1",attenuated development of mechanical allodynia; also recorded: prevention of vincristine-mediated pain
same,"development of mechanical allodynia (mechanical threshold, von Frey)","[2]; Example 3, rats, Compound A 25 or 50 mg/kg/day (i.p., bid pre-dosing 2 days, then mini-pump 12 days), tested days 5, 9 and 12, FIG. 7",attenuated development of mechanical allodynia; also recorded: prevention of vincristine-mediated pain
"CC1(c2nc3c(C(N)=O)cc(F)cc3[nH]2)CCCN1 (stereo not drawn) [Compound B, 6-fluoro-2-(2-methylpyrrolidin-2-yl)-1H-benzimidazole-4-carboxamide]","development of mechanical allodynia (mechanical threshold, von Frey)","[2]; Example 1, rats, Compound B 25 or 50 mg/kg/day i.p., 2 days pre-dosing then mini-pump 12 days, tested 3, 6 and 10 days after vincristine start, FIG. 2",attenuated development of mechanical allodynia; also recorded: prevention of vincristine-mediated pain
"C[C@@]1(c2nc3c(C(N)=O)cccc3[nH]2)CCCN1 [Compound C, 2-[(2S)-2-methylpyrrolidin-2-yl]-1H-benzimidazole-4-carboxamide]",development of cold hyperalgesia (number of paw lifts from cold plate),[3]; week 6,attenuated development of cold hyperalgesia; also recorded: attenuation of oxaliplatin-mediated cold allodynia
same,development of mechanical allodynia (von Frey),[3]; weeks 3 and 6,attenuated development of mechanical allodynia; also recorded: attenuation of oxaliplatin-mediated mechanical allodynia
same,cisplatin-induced decrease in amplitude in SNAP recording from the digital nerve,[4],prevented; also recorded: prophylactic effect
same,development of mechanical allodynia (von Frey),"[5]; weeks 3, 6 and 8",attenuated development of mechanical allodynia; also recorded: attenuation of cisplatin-mediated mechanical allodynia
same,development of heat hyperalgesia (latency to paw withdrawal from radiant heat source),[5]; weeks 3 and 6,attenuated development of heat hyperalgesia; also recorded: attenuation of cisplatin-mediated heat hyperalgesia
"O=C1CCC(=O)N1c1cc(Cc2n[nH]c(=O)c3c2CCCC3)ccc1F [Compound D, 1-(2-fluoro-5-((4-oxo-3,4,5,6,7,8-hexahydrophthalazin-1-yl)methyl)phenyl)pyrrolidine-2,5-dione]","vincristine-induced mechanical allodynia (mechanical threshold, von Frey)","[2]; Example 6, rats, vincristine i.v. by mini-pump 12 days, Compound D 25 or 50 mg/kg/day, 2 days ip pretreatment, days 5, 9 and 12 post-mini-pump implantation, FIG. 10",attenuated vincristine-induced mechanical allodynia; also recorded: dose-dependent; also recorded: prevention of vincristine-mediated pain
"CN1CC[C@]23c4c5ccc(O)c4O[C@H]2[C@@H](O)C=C[C@H]3[C@H]1C5 [Morphine, morphine, reference compound]","reversal of mechanical allodynia (von Frey), positive control",[2]; Example 1,fully reversed mechanical allodynia on all testing days
same,"reversal of mechanical allodynia (von Frey), positive control",[2]; Example 3,fully reversed mechanical allodynia on all testing days
